We go through nine compounds from paper PMC9405135, “Tuning the Biological Activity of Camphorimine Complexes through Metal Selection” (Antibiotics, 2022).

Like-named read-outs stand apart in the source and are kept apart here. Bounds are passed on as bounds.

Data set [1] deals with OVCAR3 cells. As to the kind of experiment: MTT cytotoxicity, OVCAR3 ovarian cancer cells. The conditions noted are these: for IC50: read-out: IC50 OVCAR3; for SI = selectivity index = IC50(HDF)/IC50(OVCAR3): HDF versus OVCAR3, 24 h.
Data set [2] is described as follows: Reduction potential by cyclic voltammetry. It is filed as physicochemical. Further details: E1/2red (reduction potential, footnote d): reference not given here. The conditions noted are these: Bu4NBF4/CH3CN electrolyte, ±10 mV; for Epred (reduction potential): versus SCE; for E1/2red (reduction potential, footnote d): half-wave potential, footnote d prints [28].

For data set [3], the system named is A2780 cells. Briefly: MTT cytotoxicity, A2780 ovarian cancer cells. The conditions noted are these: read-out: IC50 A2780, 24 h incubation.
Data set [4] has as its system ΦX174 supercoiled DNA. Further details: method as in PMID 31671298. The following applies: previously shown; cited from earlier work.
For data set [5], the system named is HDF fibroblasts. Briefly: MTT cytotoxicity, HDF normal fibroblasts. The conditions noted are these: read-out: IC50 HDF, 24 h incubation.
Data set [6] has as its system V79 fibroblasts. Briefly: MTT cytotoxicity, V79 normal fibroblasts. The conditions noted are these: read-out: IC50 V79, 24 h incubation.
Data set [7] concerns caspase-3/7 in OVCAR3 cells. As to the kind of experiment: Caspase-3/7 activation (Caspase-Glo 3/7 assay). Type of data set: cell-based, human. The conditions noted are these: OVCAR3, 24 h, concentrations below IC50. The procedure:
Caspases are a family of cysteine proteases playing central roles in the regulation of cellular processes such as programmed cell death. Among them, caspase-3 and -7 are considered executioners of the apoptosis pathways. We investigated the possible activation of apoptotic events in OVCAR3 cells treated by camphorimine complexes 1, 5, and 9.
The activities of caspase-3 and -7 were assessed using the Caspase-Glo® 3/7 assay (Promega, Madison, WI, USA). The assay kit provides a proluminescent caspase-3/7 substrate (DEVD-aminoluciferin) and luciferase in a reagent optimized for caspase-3/7 activity, luciferase activity, and cell lysis. In the presence of caspase 3/7, this substrate is cleaved, and aminoluciferin is released and consumed by luciferase, which generates a luminescent signal proportional to the caspase activity present in the cells. The assay was carried out in a 96-well plate format with the OVCAR3 cells treated with complexes 1, 5, and 9 for 24 h at concentrations below their IC50 according to a previously described method. […] Results (mean ± SD) were expressed as relative luminescent units (RLU).

Data set [8] deals with OVCAR3 cells. Briefly: Superoxide generation (NBT assay). It is filed as cell-based, human. The conditions noted are these: 1 at 50 and 100 µM, 5 at 20 and 50 µM, 9 at 10 and 20 µM. The procedure: The ROS species superoxide (O2^•−) can be detected with NBT, a cell-permeant dye that can cross the cell membrane and be reduced by intracellular free radicals (superoxide anions) to form formazan particles, which can be detected as blue precipitates in the cells.
The nitro blue tetrazolium (NBT) assay was carried out adapting a previously described method. This assay was used to determine the ability of cells to produce superoxide anion upon treatment with the compounds. During the treatment, NBT is reduced by superoxide anion, resulting in dark-blue formazan particles. […] Then, the medium was discarded, and the blue formazan particles were dissolved in 200 μL of 90% DMSO (90% DMSO:10% NaOH 0.1 N with 0.1% SDS). The resulting NBT formazan was measured at 560 nm using a plate spectrophotometer.

Data set [9] is described as follows: Complex stability in cellular medium by UV/Vis spectroscopy. It is filed as physicochemical. The following applies: DMSO, DMEM with 1% DMSO, DMEM with 1% DMSO + 10% FBS; 48 h. The procedure: The stability in cellular medium of the complexes was evaluated for 48 h, using UV/Vis spectroscopy. The absorption spectrum was recorded for each complex dissolved in (a) 100% DMSO, (b) colorless DMEM with 1% DMSO, and (c) colorless DMEM with 1% DMSO + 10% FBS [30]. […] As low concentrations were used in the biological studies, we expect that both the stability and the solubility were not impaired.

The subject of data set [10] is OVCAR3 cells. Briefly: Lipid peroxidation (MDA, TBARS) assay. It is filed as cell-based, human. The following applies: OVCAR3 cells treated 6 h; 1 at 100 μM, 5 at 50 μM, 9 at 20 μM; mean ± SD. The procedure:
Measurement of MDA relies on the detection of thiobarbituric acid (TBA)-reactive compounds generated from the decomposition of lipid peroxidation products. This reaction, which takes place under acidic conditions at 95 °C, results in the formation of an MDA–TBA adduct that can be quantified by its absorbance at 532 nm. […] Additionally, the MDA levels induced by the complexes correlated with the levels of ROS, pointing the involvement of ROS production in the mechanism of action of complexes under study and, consequently, the peroxidation of the membrane lipids, as supported by the correlation between the production of ROS and the levels of lipid peroxides, particularly for complexes 5 and 9.
The malondialdehyde (MDA) content in lipid extracts of OVCAR3 cells was measured using a colorimetric kit (BioVision, Milpitas, CA, USA), a method that relies on the reaction with thiobarbituric acid (TBARS assay). Briefly, OVCAR3 cells (5 × 10^5 cells/2 mL medium) were seeded in six-well plates and left to adhere for 24 h. […] The resulting cell pellet was treated following the kit recommended protocol. […] Then, 200 μL aliquots were then taken and transferred to a 96-well plate for MDA quantification at 532 nm. […]

Data set [11] concerns OVCAR3 cells. As to the kind of experiment: Intracellular ROS detection by H2DCF-DA. The conditions noted are these: 1-4 at 10-100 µM, 5-9 at 0.1-50 µM, 1 h. It is filed as cell-based, human. The procedure:
The molecular probe dichlorodihydrofluorescein diacetate (H2DCF-DA) was used to assess the levels of ROS, e.g., hydrogen peroxide, hydroxyl radicals, and peroxynitrite, generated in response to the effect of the complexes. This compound suffers oxidation and produces a fluorescent compound (DCF) in the presence of ROS [31]. The induction of intracellular ROS by the compounds (metal precursors and copper, silver, and gold complexes) was analyzed at λexc. = 492 nm 517 nm emission using a Varioskan LUX scanning multimode reader (Thermo Fisher Scientific).
Intracellular ROS levels, mainly H2O2, were measured using dihydro-2′7′dichlorofluorescein diacetate (H2DCF-DA). This cell-permeable molecular probe is de-esterified within the cell and turns to highly fluorescent 2′,7′-dichlorofluorescin (DCF) upon oxidation with ROS. For the assays, OVCAR3 cells (2 × 10^4 cells /well) were seeded in 96-well plates and left to adhere overnight. The medium was then replaced with a solution of 10 μM H2DCF-DA in colorless DMEM (FluoroBrite™ DMEM, Gibco®, Waltham, MA, USA) and cells were incubated at 37 °C for 30 min. […] DCF fluorescence was measured using a Varioskan Lux multimode microplate reader (ThermoFisher Scientific, Waltham, MA, USA) at 492 nm excitation and 517 nm emission. Results of fluorescence were expressed as the fold change in fluorescence levels compared with controls.

For data set [12], the system named is OVCAR3 cells. As to the kind of experiment: Metal distribution in single cells by nuclear microscopy (PIXE). The conditions noted are these: 1 at 45 μM 24 h, 9 at 30 μM 3 h. Type of data set: cell-based, human. The procedure: The distribution of copper and gold in treated cells was inspected by nuclear microscopy, making use of the PIXE technique to map and assess elemental contents in single cells. The nuclear microscopy techniques offer several advantages, regarding relatively high spatial resolution and sensitivity for a wide range of elements with physiological roles and those with pharmaceutical interest, in whole cells, while preserving most of their in vivo conditions.
OVCAR3 cells (ca. 1 × 10^6) were prepared for nuclear microscopy experiments by seeding the cells on a 100 nm thick silicon nitride membrane (Silson Ltd., Southam, UK), contained in six-well plates, and incubated overnight as described previously. Cells were incubated with complexes 1 and 9 at concentrations corresponding to the IC50 (45 μM for 24 h and 30 μM for 3 h, respectively). After incubation, the cells were analyzed at the nuclear microscopy facility of the C2TN/IST with a 2.0 MeV proton beam focused down to 3 × 4 µm^2 dimensions. Images of the micro-distributions of Cu and Au in OVCAR3 cells, as well as minor and trace physiological elements (e.g., P, S, K, and Fe), were obtained using the PIXE multielemental technique. Images of whole OVCAR3 cells were taken with 30 × 30 µm^2 scan sizes. Acquisition of data imaging and spectral analysis was performed using OMDAQ 2007 (Oxford Microbeams Ltd., Oxford, UK).

For data set [13], the system named is ΦX174 supercoiled DNA. As to the kind of experiment: Complex-DNA interaction, agarose gel electrophoretic mobility. It is filed as binding. The following applies: 0.5-15 µM complex, 24 h at 37 °C. The procedure: Therefore, we focused our studies mostly on the silver (5 and 7) and gold complexes (8 and 9) having the monocamphor ligands ^1A and ^2A, respectively. Complex 1 was also included for comparison. We evaluated the complexes’ ability to interact with DNA, by visualizing in vitro conformational changes in ΦX174 supercoiled DNA using agarose gel electrophoresis assays.
The DNA binding activity of the metal complexes was assessed through their ability to alter the electrophoretic mobilities of the covalently closed circular (ccc) and open circular (oc) forms of ΦX174 supercoiled DNA as previously described. Briefly, a mixture containing 200 ng of ϕX174 DNA (Promega, Madison, WI, USA) and different concentrations of the metal complexes was prepared. After incubation for 24 h at 37 °C in the dark, the samples were run in a 0.8% agarose gel in TAE buffer for 3 h at 90 V. The gel obtained was then stained using a 3× GelRed® (Biotium, Fremont, CA, USA) solution in H2O and imaged in an AlphaImagerEP (Alpha Innotech, San Leandro, CA, USA).

As usually defined, the IC50 is the concentration that gives 50% inhibition. In the case of `CC(=O)[O-].[Ag+]` [Ag(CH3COO), silver acetate, reference compound], in [1] (MTT, 24 h incubation), the IC50 was found to be 3.38 ± 2 µM. Also, the “Epred (reduction potential)” value in [2] was −0.043 Volt.

For `O=[N+]([O-])[O-].[Ag+]` [Ag(NO3), silver nitrate, reference compound], the IC50 in [1] came out at 2.66 ± 1 µM. Moreover, in data set [2], the “Epred (reduction potential)” value is on record as 0.18 Volt.

As for `[Cl][Cu][Cl]` [CuCl2, reference compound], in data set [1] (MTT, 24 h incubation), the 50% inhibitory concentration (IC50) is over 100 µM. Further, the “E1/2red (reduction potential, footnote d)” value in data set [2] is 0.58 ^d Volt.

For the compound `[Cl][Cu]` [CuCl, reference compound], in data set [1] (MTT, 24 h incubation), the concentration for half-maximal inhibition (IC50) is over 100 µM. Moreover, in data set [2], the “Epred (reduction potential)” value was −0.46 Volt.

Turning to `N.N.[Cl][Pt][Cl]` [cisplatin, reference compound], the IC50 was 21 ± 5 µM in data set [3] and 13 ± 4.7 µM in data set [1] (MTT, 24 h incubation). Moreover, the “interaction with DNA (change of electrophoretic mobility)” value in [4] was “bind to DNA and induce extensive electrophoretic mobility changes in DNA”.

For the compound [CuCl2((OC10H14N)2C6H4-p)] [Complex 2], the IC50 in data set [5] is over 100 µM; in [3], 49.5 ± 14 µM; in [6] it was over 100 µM; in data set [1] (MTT, 24 h incubation), 37.6 ± 8.5 µM. Also, the “SI = selectivity index = IC50(HDF)/IC50(OVCAR3)” value in data set [1] is over 3. Further, in data set [2], the “E1/2red (reduction potential, footnote d)” value is listed as 0.48 ^d Volt.

Consider “[CuCl2(OC10H14NC6H5)]·HCl·½H2O [Complex 4]”, for which the concentration for half-maximal inhibition (IC50) in data set [5] was over 100 µM; in [3], over 100 µM; in data set [6] it was over 100 µM; in [1] (MTT, 24 h incubation), 115 ± 25 µM. Further, the “SI = selectivity index = IC50(HDF)/IC50(OVCAR3)” value in data set [1] is over 1. Besides, the “E1/2red (reduction potential, footnote d)” value in data set [2] was 0.47 ^d Volt.

As for “[{CuCl}2{OC10H14N(C6H4NH2)}] [Complex 1]”, the half-inhibitory concentration (IC50) in data set [5] came out at 116 ± 27 µM; in [3], 45.6 ± 11 µM; in data set [6], 34.5 ± 9.7 µM; in data set [1] (MTT, 24 h incubation), 72.4 ± 9.1 µM. In addition, in [7], the caspase-3/7 activation result is “low caspase activation”. Also, in [8], the “superoxide ROS levels (NBT reduction)” value is on record as “increased the ROS levels in a dose-dependent manner”. In addition, in data set [9], the “stability in cellular medium (UV/Vis spectra)” value was “slightly lower”. In addition, in data set [10], the “MDA (lipid peroxide content)” value amounted to 290 ± 15 pmoles/10^6 Cells. In data set [11], the “production of ROS (H2DCF-DA, relative to untreated cells)” value is recorded as “followed a similar trend”. The “cellular distribution of the metal” value in data set [12] is “uncharacteristic map of copper distribution”. The “SI = selectivity index = IC50(HDF)/IC50(OVCAR3)” value in data set [1] worked out at 1.6. In addition, in [2], the “Epred (reduction potential)” value was −0.49 Volt. For the same compound, in data set [13], the “interaction with DNA (change of electrophoretic mobility)” value was “none of them interacted significantly with DNA”.

As to “[{CuCl}3{(OC10H14N)2,μ-C6H4-p)}] [Complex 3]”, the IC50 in data set [5] stood at 48.3 ± 27 µM; in data set [3], 43.1 ± 9.1 µM; in data set [6], 44.9 ± 10 µM; in data set [1] (MTT, 24 h incubation) it was 37.5 ± 7.7 µM. Besides, the “SI = selectivity index = IC50(HDF)/IC50(OVCAR3)” value in [1] is 1.3. Besides, the “E1/2red (reduction potential, footnote d)” value in [2] is −0.46 ^d Volt.
